Experiments:
AKT1 = biological target: T1, AKT1 (Homo sapiens, UniProt P31749); test: Hot-Spot kinase profiling; type: biochemical; conditions: read-out: % Enzyme Activity (Relative to DMSO Controls) AKT1
T1 construct: purchased Reaction Biology Corp. (HotSpot kinase assay)
Method: (§1) Activities of kinases were determined using Hot-SpotSM kinase assay which was performed by Reaction Biology Corp. (Malvern PA, USA) as described previously.

FLT3 (R595_E596insEY) = biological target: T2, FLT3 (R595_E596insEY) (Homo sapiens, UniProt P36888, INS595EY); test: Hot-Spot kinase profiling; type: biochemical
T2 construct: purchased Reaction Biology Corp
Method: as §1

CDK6/cyclin D1 = biological target: T3, CDK6/cyclin D1 (Homo sapiens, UniProt Q00534); test: Hot-Spot kinase profiling; type: biochemical
T3 construct: purchased Reaction Biology Corp
Method: as §1

CDK1/cyclin B = biological target: T4, CDK1/cyclin B (Homo sapiens, UniProt P06493); test: Hot-Spot kinase profiling; type: biochemical
T4 construct: purchased Reaction Biology Corp
Method: as §1

FGFR1 = biological target: T5, FGFR1 (Homo sapiens, UniProt P11362); test: Hot-Spot kinase profiling; type: biochemical; conditions: read-out: % Enzyme Activity (Relative to DMSO Controls) FGFR1
T5 construct: purchased Reaction Biology Corp. (HotSpot kinase assay)
Method: as §1

c-Kit = biological target: T6, c-Kit (Homo sapiens, UniProt P10721); test: Hot-Spot kinase profiling; type: biochemical; conditions: read-out: % Enzyme Activity (Relative to DMSO Controls) c-Kit
T6 construct: purchased Reaction Biology Corp. (HotSpot kinase assay)
Method: as §1

KDR/VEGFR2 = biological target: T7, KDR/VEGFR2 (Homo sapiens, UniProt P35968); test: Hot-Spot kinase profiling; type: biochemical
T7 construct: purchased Reaction Biology Corp. (Malvern PA, USA)
Method: as §1

CHK2 = biological target: T8, CHK2 (Homo sapiens, UniProt O96017); test: Hot-Spot kinase profiling; type: biochemical; conditions: read-out: % Enzyme Activity (Relative to DMSO Controls) CHK2
T8 construct: purchased Reaction Biology Corp. (HotSpot kinase assay)
Method: as §1

ALK = biological target: T9, ALK (Homo sapiens, UniProt Q9UM73); test: Hot-Spot kinase profiling; type: biochemical; conditions: read-out: % Enzyme Activity (Relative to DMSO Controls) ALK
T9 construct: purchased Reaction Biology Corp. (HotSpot kinase assay)
Method: as §1

GSK3β = biological target: T10, GSK3β (Homo sapiens, UniProt P49841); test: Hot-Spot kinase profiling; type: biochemical
T10 construct: purchased Reaction Biology Corp
Method: as §1

FLT3 (ITD)-F691L = FLT3 (ITD)-F691L (Homo sapiens, UniProt P36888, F691L/ITD); test: Hot-Spot kinase profiling; type: biochemical; conditions: Table 5 kinase profiling
Method: as §1

FLT3 (ITD)-NPOS = FLT3 (ITD)-NPOS (Homo sapiens, UniProt P36888, ITD); test: Hot-Spot kinase profiling; type: biochemical
Method: as §1

ALK1/ACVR1 = test: Hot-Spot kinase profiling; type: biochemical; conditions: 0.15 μM
Method: as §1

CDK2/cyclin A = biological target: T11, CDK2/cyclin A (Homo sapiens, UniProt P24941); test: Hot-Spot kinase profiling; type: biochemical
T11 construct: purchased Reaction Biology Corp
Method: as §1

CDK4/cyclin D1 = biological target: T12, CDK4/cyclin D1 (Homo sapiens, UniProt P11802); test: Hot-Spot kinase profiling; type: biochemical
T12 construct: purchased Reaction Biology Corp
Method: as §1

FMS = biological target: T13, FMS (Homo sapiens, UniProt P07333); test: Hot-Spot kinase profiling; type: biochemical; conditions: read-out: % Enzyme Activity (Relative to DMSO Controls) FMS
T13 construct: purchased Reaction Biology Corp
Method: as §1

CDK9/cyclin K = biological target: T14, CDK9/cyclin K (Homo sapiens, UniProt P50750); test: Hot-Spot kinase profiling; type: biochemical
T14 construct: purchased Reaction Biology Corp
Method: as §1

CDK3/cyclin E = biological target: T15, CDK3/cyclin E (Homo sapiens, UniProt Q00526); test: Hot-Spot kinase profiling; type: biochemical
T15 construct: purchased Reaction Biology Corp
Method: as §1

SK-OV-3 = test: NCI60 screening; type: cell-based; conditions: Homo sapiens, Ovarian Cancer panel
Source text: (§2) With these findings, we submitted compound 8t to National Cancer Institute (NCI) to evaluate their antitumor efficacy against 60 human cancer cell lines.

A549/ATCC = test: NCI60 screening; type: cell-based; conditions: Homo sapiens, Non-Small Cell Lung Cancer panel
Source text: as §2

HOP-92 = test: NCI60 screening; type: cell-based; conditions: Homo sapiens, Non-Small Cell Lung Cancer panel
Source text: as §2

SK-MEL-2 = test: NCI60 screening; type: cell-based; conditions: Homo sapiens, Melanoma panel
Source text: as §2

[1] = system: human cell lines of NCI60; test: NCI60 screening, overall; type: cell-based; conditions: for most cell lines
Source text: as §2

[2] = system: phosphorylation of STAT5/AKT/ERK; test: Western blot, phosphorylation of STAT5/AKT/ERK in MV4-11 cells; type: cell-based, human; conditions: MV4-11, 4 h, 1 μM
Method: Analysis of pFLT3, pSTAT5, pERK, pAKT, and pRb in vitro: to determine the levels of pFLT3, pSTAT5, pERK, pAKT, and pRb, cells were seeded in a 6-well cell culture plate at a density of 400,000 cells per well for MV4-11 in a total volume of 1800 μL and incubated overnight in medium containing 10% fetal bovine serum (Life Technologies, Rockville, MD, USA). Then 200 μL of serially diluted compounds were added to each well the next day. Cell lysates were harvested after 4 h and pFLT3, pSTAT5, pERK, pAKT, or pRb were quantified using assay kits for FLT3/Phospho-FLT3Tyr589/591, pSTAT5 (Tyr694)/total STAT5, pRb (Ser807)/total Rb (Nanjin keyGen Biotech Company, Nanjing, China) following the manufacturer’s protocols.

T7 sequence (P35968 20-1356): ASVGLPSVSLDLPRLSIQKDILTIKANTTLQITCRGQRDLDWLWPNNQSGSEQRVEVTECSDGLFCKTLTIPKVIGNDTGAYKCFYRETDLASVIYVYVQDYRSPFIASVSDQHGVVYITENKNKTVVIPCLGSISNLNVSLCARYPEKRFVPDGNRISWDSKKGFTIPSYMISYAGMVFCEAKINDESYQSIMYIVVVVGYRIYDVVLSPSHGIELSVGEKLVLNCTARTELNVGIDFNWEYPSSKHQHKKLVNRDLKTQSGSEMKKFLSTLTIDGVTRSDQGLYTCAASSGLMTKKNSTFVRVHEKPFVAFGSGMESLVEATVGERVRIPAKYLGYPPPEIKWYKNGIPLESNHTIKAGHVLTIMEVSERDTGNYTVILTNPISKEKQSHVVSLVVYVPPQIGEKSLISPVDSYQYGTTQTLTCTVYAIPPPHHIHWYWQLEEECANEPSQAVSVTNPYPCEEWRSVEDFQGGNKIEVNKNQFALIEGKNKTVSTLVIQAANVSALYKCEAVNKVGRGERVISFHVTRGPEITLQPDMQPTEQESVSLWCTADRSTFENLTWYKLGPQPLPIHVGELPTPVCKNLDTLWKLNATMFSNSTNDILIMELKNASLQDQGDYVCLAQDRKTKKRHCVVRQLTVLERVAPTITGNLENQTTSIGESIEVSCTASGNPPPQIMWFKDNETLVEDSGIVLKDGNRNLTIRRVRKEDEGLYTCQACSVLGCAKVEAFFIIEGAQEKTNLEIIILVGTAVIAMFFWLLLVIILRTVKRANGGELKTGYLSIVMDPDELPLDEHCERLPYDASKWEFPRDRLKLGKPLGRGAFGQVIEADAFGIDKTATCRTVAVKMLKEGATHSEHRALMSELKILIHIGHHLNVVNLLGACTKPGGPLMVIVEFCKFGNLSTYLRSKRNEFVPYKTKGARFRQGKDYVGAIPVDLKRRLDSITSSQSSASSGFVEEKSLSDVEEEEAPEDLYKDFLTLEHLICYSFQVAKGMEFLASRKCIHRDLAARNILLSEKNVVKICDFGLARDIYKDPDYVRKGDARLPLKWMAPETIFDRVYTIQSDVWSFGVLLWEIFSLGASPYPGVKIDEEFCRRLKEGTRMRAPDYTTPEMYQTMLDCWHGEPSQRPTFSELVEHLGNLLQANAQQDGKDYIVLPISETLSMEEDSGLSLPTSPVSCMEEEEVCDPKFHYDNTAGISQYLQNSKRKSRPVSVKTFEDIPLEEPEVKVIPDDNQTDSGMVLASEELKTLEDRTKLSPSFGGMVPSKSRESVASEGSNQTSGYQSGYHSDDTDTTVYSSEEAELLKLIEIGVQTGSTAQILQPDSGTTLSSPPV
T15 sequence (Q00526 whole entry): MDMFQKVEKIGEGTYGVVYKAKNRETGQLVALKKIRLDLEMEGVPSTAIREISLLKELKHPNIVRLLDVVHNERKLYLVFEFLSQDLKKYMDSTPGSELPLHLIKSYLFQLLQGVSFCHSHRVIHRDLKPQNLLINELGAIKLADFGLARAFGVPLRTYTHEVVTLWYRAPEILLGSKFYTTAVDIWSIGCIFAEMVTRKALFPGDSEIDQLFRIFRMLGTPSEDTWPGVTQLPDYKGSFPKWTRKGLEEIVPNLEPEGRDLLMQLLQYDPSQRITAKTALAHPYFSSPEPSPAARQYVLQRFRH
T15 sequence (P24864 whole entry partner): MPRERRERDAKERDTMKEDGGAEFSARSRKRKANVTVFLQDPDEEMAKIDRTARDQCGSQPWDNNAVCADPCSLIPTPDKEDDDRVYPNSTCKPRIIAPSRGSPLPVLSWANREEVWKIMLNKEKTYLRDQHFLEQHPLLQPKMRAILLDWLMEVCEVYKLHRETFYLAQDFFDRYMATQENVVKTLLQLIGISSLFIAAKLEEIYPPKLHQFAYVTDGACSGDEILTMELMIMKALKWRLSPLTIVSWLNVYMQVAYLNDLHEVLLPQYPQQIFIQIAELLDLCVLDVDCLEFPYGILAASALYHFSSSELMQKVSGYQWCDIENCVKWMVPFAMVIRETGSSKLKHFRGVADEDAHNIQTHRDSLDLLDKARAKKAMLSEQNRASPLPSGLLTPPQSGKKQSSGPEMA
T14 sequence (P50750 whole entry): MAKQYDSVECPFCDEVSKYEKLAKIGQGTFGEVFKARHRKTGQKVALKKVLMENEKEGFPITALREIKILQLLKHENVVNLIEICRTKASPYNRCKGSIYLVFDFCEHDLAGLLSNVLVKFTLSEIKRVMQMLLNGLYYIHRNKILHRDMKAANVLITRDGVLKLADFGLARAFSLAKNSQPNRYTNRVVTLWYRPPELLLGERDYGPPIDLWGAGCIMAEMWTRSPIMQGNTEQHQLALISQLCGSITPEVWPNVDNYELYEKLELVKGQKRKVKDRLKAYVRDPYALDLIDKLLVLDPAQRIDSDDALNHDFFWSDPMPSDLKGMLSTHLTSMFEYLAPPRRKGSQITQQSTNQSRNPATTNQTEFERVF
T14 sequence (O75909 whole entry partner): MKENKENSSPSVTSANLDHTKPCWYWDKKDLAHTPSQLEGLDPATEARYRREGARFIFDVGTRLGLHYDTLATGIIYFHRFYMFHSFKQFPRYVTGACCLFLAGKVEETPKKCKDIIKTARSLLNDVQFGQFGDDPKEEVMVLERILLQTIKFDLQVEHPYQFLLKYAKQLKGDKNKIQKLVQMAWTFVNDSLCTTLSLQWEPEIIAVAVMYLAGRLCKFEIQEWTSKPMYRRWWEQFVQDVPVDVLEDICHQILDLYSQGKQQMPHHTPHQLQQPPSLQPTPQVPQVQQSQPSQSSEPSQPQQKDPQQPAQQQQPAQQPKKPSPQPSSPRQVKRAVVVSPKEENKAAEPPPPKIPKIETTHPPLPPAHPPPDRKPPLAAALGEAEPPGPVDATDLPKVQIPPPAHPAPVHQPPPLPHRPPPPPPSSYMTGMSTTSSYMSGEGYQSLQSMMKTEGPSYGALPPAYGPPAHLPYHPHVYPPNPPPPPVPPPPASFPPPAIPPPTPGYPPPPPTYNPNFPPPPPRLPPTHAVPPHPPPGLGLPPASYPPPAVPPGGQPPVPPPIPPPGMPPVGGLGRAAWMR
T10 sequence (P49841 whole entry): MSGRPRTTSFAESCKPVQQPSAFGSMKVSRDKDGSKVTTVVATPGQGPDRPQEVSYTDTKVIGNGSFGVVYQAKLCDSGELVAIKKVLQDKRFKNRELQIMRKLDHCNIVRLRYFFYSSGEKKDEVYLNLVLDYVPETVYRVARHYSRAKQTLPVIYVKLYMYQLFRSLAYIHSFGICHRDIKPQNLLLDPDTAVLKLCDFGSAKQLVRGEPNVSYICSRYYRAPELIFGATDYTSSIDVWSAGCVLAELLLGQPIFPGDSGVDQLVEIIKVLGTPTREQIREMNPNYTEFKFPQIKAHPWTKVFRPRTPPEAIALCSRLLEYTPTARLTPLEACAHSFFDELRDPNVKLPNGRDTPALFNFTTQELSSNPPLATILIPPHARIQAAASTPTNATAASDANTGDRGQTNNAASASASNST
FLT3 (ITD)-NPOS, sequence (P36888 564-993, change not shown): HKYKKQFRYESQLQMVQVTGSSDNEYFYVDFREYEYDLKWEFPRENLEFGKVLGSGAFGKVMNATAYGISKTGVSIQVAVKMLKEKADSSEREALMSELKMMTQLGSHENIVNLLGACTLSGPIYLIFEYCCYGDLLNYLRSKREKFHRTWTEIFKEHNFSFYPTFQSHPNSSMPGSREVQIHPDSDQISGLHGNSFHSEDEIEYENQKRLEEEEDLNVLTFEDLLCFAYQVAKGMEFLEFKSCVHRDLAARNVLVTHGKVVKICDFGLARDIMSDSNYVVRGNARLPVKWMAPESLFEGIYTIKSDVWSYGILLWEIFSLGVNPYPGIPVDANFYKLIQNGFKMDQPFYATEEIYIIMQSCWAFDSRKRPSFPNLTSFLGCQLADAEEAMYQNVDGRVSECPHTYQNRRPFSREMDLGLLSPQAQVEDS
T12 sequence (P11802 whole entry): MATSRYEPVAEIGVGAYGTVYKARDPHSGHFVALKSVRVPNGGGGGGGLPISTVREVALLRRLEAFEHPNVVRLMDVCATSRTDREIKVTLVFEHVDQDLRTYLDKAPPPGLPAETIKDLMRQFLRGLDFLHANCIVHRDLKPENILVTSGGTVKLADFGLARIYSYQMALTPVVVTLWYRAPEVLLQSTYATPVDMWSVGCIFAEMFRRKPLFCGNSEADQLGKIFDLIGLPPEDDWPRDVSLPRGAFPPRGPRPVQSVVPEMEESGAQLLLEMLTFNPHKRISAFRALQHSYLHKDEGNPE
T12 sequence (P24385 whole entry partner): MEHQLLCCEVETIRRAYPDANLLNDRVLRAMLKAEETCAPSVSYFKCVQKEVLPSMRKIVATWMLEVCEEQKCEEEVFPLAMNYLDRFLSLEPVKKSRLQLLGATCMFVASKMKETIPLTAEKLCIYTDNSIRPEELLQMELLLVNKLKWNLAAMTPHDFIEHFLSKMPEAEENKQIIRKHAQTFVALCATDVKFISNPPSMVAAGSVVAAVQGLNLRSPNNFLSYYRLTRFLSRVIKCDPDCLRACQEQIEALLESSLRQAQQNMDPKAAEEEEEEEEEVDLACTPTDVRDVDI
T3 sequence (Q00534 whole entry): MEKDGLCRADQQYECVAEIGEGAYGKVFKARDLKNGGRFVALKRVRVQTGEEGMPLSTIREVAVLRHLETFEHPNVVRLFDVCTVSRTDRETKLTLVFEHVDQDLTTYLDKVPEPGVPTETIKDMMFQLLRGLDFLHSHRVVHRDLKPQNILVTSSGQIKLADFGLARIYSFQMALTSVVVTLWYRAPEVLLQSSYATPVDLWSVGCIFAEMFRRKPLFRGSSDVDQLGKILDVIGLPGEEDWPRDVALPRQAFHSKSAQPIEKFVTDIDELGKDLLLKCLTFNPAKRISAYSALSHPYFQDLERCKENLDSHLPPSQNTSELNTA
T3 sequence (P24385 whole entry partner): as the sequence (P24385 whole entry partner) above
FLT3 (ITD)-F691L, sequence (P36888 564-993 F691L): as the sequence (P36888 564-993, change not shown) above, with F128L counted along it

O=C(Nc1ccc(N2CCNCC2)cc1)c1n[nH]cc1Nc1ncnc2sc3c(c12)CCC3 [Compound 8t]
remaining activity at 0.15 µM (AKT1): 122% | remaining activity at 0.15 µM (FLT3 (R595_E596insEY); 0.15 μM, read-out: % Enzyme Activity (Relative to DMSO Controls) FLT3 (R595_E596insEY)): 0.44% | IC50 (FLT3 (R595_E596insEY); Table 5 kinase profiling): 1.59 ± 0.14 nM | remaining activity at 0.15 µM (CDK6/cyclin D1; 0.15 μM, read-out: % Enzyme Activity (Relative to DMSO Controls) CDK6/cyclin D1): 1.33% | IC50 (CDK6/cyclin D1; Table 5 kinase profiling): 0.59 ± 0.09 nM | remaining activity at 0.15 µM (CDK1/cyclin B; 0.15 μM, read-out: % Enzyme Activity (Relative to DMSO Controls) CDK1/cyclin B): 18.2% | IC50 (CDK1/cyclin B; Table 5 kinase profiling): 138 ± 1.24 nM | remaining activity at 0.15 µM (FGFR1): 40% | remaining activity at 0.15 µM (c-Kit): 64.8% | remaining activity at 0.15 µM (KDR/VEGFR2; 0.15 μM, read-out: % Enzyme Activity (Relative to DMSO Controls) KDR/VEGFR2): 7.29% | IC50 (KDR/VEGFR2; Table 5 kinase profiling): 8.32 ± 0.54 nM | remaining activity at 0.15 µM (CHK2): 38.4% | remaining activity at 0.15 µM (ALK): 16.6% | remaining activity at 0.15 µM (GSK3β; 0.15 μM, read-out: % Enzyme Activity (Relative to DMSO Controls) GSK3b): 8.65% | IC50 (GSK3β; Table 5 kinase profiling): 12 ± 1.2 nM | IC50 (FLT3 (ITD)-F691L): 0.6 ± 0.01 nM | remaining activity at 0.15 µM (FLT3 (ITD)-NPOS; 0.15 μM, read-out: % Enzyme Activity (Relative to DMSO Controls) FLT3 (ITD)-NPOS): 1.38% | IC50 (FLT3 (ITD)-NPOS; Table 5 kinase profiling): 4.32 ± 0.23 nM | % Enzyme Activity (Relative to DMSO Controls) ALK1/ACVR1 (ALK1/ACVR1): 57.96% | remaining activity at 0.15 µM (CDK2/cyclin A; 0.15 μM, read-out: % Enzyme Activity (Relative to DMSO Controls) CDK2/cyclin A): 4.01% | IC50 (CDK2/cyclin A; Table 5 kinase profiling): 2.56 ± 0.31 nM | remaining activity at 0.15 µM (CDK4/cyclin D1; 0.15 μM, read-out: % Enzyme Activity (Relative to DMSO Controls) CDK4/cyclin D1): 1.56% | IC50 (CDK4/cyclin D1; Table 5 kinase profiling): 0.78 ± 0.04 nM | remaining activity at 0.15 µM (FMS): 63% | remaining activity at 0.15 µM (CDK9/cyclin K; 0.15 μM, read-out: % Enzyme Activity (Relative to DMSO Controls) CDK9/cyclin K): 7.2% | IC50 (CDK9/cyclin K; Table 5 kinase profiling): 14.2 ± 0.82 nM | remaining activity at 0.15 µM (CDK3/cyclin E; 0.15 μM, read-out: % Enzyme Activity (Relative to DMSO Controls) CDK3/cyclin E): 5.94% | IC50 (CDK3/cyclin E; Table 5 kinase profiling): 6.88 ± 0.25 nM | GI50 (SK-OV-3): 260 nM | GI50 (A549/ATCC): 140 nM | GI50 (HOP-92): 40 nM | GI50 (SK-MEL-2): 1160 nM | GI50 [1]: < 1000 nM | melting point: 266 to 268 °C | phosphorylation of STAT5/AKT/ERK [2]: completely blocked

Source: publication PMC6887723, “Design and Synthesis of 4-(Heterocyclic Substituted Amino)-1H-Pyrazole-3-Carboxamide Derivatives and Their Potent Activity against Acute Myeloid Leukemia (AML)” (International Journal of Molecular Sciences, 2019)
